Reference: patent publication US8993526B2, “Method for counteracting the perception of sweat malodour by decreasing the function of carboxylic acid-binding olfactory receptors” (ChemCom S.A., priority 2011, dated 2015)

What was measured:
Type in all cases: cell-based
Conditions in all cases: tested at 1 mM, 316 μM, 100 μM; hit = luciferase activity >= median + 2 standard deviations
OR51I2 = target: T1, OR51I2 (Homo sapiens, UniProt Q9H344, T134A); experiment: CRE-luciferase reporter assay, OR51I2 in HEK293T-RTP1A1/RTP2 cells
T1 construct: expressed in transfected cells; host or cells: HEK293T-RTP1A1/RTP2
T1 sequence (Q9H344 1-312 T134A): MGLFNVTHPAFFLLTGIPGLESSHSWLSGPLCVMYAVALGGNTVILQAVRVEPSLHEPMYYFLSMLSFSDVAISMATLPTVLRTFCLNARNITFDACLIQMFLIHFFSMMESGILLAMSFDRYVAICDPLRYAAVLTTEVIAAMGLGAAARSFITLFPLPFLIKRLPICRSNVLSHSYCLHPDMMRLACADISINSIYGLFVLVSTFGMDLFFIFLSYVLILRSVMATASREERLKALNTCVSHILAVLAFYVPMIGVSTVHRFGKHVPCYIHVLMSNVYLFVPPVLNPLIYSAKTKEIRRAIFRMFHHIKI
Description: (§1) Cells were maintained in minimal essential medium (EMEM, Lonza) containing 10% fetal bovine serum (M10). HEK293T-RTP1A1/RTP2 cells were generated by transfecting HEK293T with an expression vector containing the sequences of the chaperone proteins RTP1A1 and RTP2 and a resistance gene to puromycin, using Lipofectamine 2000. A recombinant cell population was selected by adding 10 μg/ml of puromycin into the culture medium. Monoclonal populations were further obtained by limit dilution procedure. Briefly, a cell suspension was diluted to contain 1 cell per ml and this dilution was dispatched in poly-D-lysine-coated 96 wells plates (200 μl of dilution per well). After 5 days of culture, the presence and number of cell colonies per well was checked under a phase contrast microscopic. After 5 additional days of culture, wells containing a single colony were harvested and each collected population was amplified independently.
(§2) For screening experiments, stock solutions of odorant molecules were diluted in EMEM disposed in 96-well plates. Plates containing the tested molecules (1 molecule/well) at a concentration of 2 mM, at a concentration of 632 μM and at a concentration of 200 μM were prepared.
(§3) For concentration-response analysis, serial dilutions of the tested molecules were prepared from stock solutions in EMEM plated into 96-well plates.
(§4) For the initial deorphanisation screening and dose-response analysis, a Luciferase-based gene reporter assay (Promega, Leiden, The Nederlands) was used as described in Saito et al. (2004). Briefly, cells were platted on poly-D-lysine-coated 96-well plates (BD Bioscience, Erembodegem-Dorp, Belgium) and transfected with a plasmid containing the CRE-luciferase and a plasmid containing the olfactory receptor. Sixteen hours after transfection, the culture medium was replaced by serum-free EMEM containing the tested ligand at a determined concentration. After four hours of incubation at 37° C. degree, cells were lysed and processed for luminescence measurement according to the manufacturer's protocols. Luminescene emission was recorded on a Spectra Max M5 reader (Molecular Devices, Sunnyvale, Calif.). Results were expressed as percentage of the response induced by 10 μM of the adenylate cyclase activator Forskolin.
(§5) Each molecule was tested at 3 different concentrations (1 mM, 316 μM, 100 μM). The different molecules of the tested libraries were disposed at the same concentration into 96 well plates (1 well/molecule) containing cells expressing the receptor of interest. The activity of the tested molecules was measured using the lucifierase activity as explained above. The median luciferase activity induced by the tested molecules and the associated standard deviation were determined. Putatively active molecules (hits) were defined as molecules inducing a luciferase activity higher or equal to the median+2 standard deviations.
(§6) The hits were validated by concentration-response analysis. Semi-logarithmic serial dilutions of hit molecules, from 1 mM to 316 nM, were tested on the responding ORs using the luciferase assay as described above.

OR52B2 = target: T2, OR52B2 (Homo sapiens, UniProt Q96RD2); experiment: CRE-luciferase reporter assay, OR52B2 in HEK293T-RTP1A1/RTP2 cells
T2 construct: expressed in transfected cells; host or cells: HEK293T-RTP1A1/RTP2
T2 sequence (Q96RD2 1-323): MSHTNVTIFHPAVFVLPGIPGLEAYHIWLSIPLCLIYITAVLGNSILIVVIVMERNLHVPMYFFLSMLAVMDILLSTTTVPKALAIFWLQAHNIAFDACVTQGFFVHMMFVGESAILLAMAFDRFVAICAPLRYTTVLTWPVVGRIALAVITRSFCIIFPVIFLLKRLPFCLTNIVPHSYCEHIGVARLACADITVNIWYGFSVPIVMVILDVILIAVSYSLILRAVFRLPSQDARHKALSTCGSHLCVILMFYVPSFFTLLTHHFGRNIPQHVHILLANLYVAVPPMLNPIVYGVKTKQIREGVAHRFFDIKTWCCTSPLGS
Description: as §1, §2, §3, §4, §5, §6

OR56A5 = target: T3, OR56A5 (Homo sapiens, UniProt P0C7T3, R311K/V104M); experiment: CRE-luciferase reporter assay, OR56A5 in HEK293T-RTP1A1/RTP2 cells
T3 construct: expressed in transfected cells; host or cells: HEK293T-RTP1A1/RTP2
T3 sequence (P0C7T3 1-313 V104M/R311K): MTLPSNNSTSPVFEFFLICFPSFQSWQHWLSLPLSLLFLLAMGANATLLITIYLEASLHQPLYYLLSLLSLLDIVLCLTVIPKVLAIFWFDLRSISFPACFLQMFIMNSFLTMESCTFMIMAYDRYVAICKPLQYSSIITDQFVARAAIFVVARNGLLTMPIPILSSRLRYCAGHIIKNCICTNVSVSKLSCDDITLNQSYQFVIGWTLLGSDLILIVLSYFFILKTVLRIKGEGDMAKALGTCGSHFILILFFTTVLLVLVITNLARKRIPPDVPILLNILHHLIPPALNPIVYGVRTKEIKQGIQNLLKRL
Description: as §1, §2, §3, §4, §5, §6

OR52E1 = target: T4, OR52E1 (Homo sapiens, UniProt Q8NGJ3, F254L/Y278C); experiment: CRE-luciferase reporter assay, OR52E1 in HEK293T-RTP1A1/RTP2 cells
T4 construct: expressed in transfected cells; host or cells: HEK293T-RTP1A1/RTP2
Description: as §1, with “independently. For screening experiments, stock solutions of odorant molecules were diluted in EMEM disposed in 96-well plates. Plates containing the tested molecules (1 molecule/well) at a concentration of 2 mM, at a concentration of 632 μM and at a concentration of 200 μM were prepared. For concentration-response analysis, serial dilutions of the tested molecules were prepared from stock solutions in EMEM plated into 96-well plates. […]” for “independently.”

OR52E8 = target: T5, OR52E8 (Homo sapiens, UniProt Q6IFG1); experiment: CRE-luciferase reporter assay, OR52E8 in HEK293T-RTP1A1/RTP2 cells
T5 construct: expressed in transfected cells; host or cells: HEK293T-RTP1A1/RTP2
Description: as §1, with “After 5 days of culture, the presence and number of cell colonies per well was checked under a phase contrast microscopic. After 5 additional days of culture, wells containing a single colony were harvested and each collected population was amplified independently.” left out
as §4, with “Briefly, cells were platted on poly-D-lysine-coated 96-well plates (BD Bioscience, Erembodegem-Dorp, Belgium) and transfected with a plasmid containing the CRE-luciferase and a plasmid containing the olfactory receptor.” left out, “Forskolin. […]” for “Forskolin.”

OR52L1 = target: T6, OR52L1 (Homo sapiens, UniProt Q8NGH7, R140C/S130L); experiment: CRE-luciferase reporter assay, OR52L1 in HEK293T-RTP1A1/RTP2 cells
T6 construct: expressed in transfected cells; host or cells: HEK293T-RTP1A1/RTP2
T6 sequence (Q8NGH7 1-329 S130L/R140C): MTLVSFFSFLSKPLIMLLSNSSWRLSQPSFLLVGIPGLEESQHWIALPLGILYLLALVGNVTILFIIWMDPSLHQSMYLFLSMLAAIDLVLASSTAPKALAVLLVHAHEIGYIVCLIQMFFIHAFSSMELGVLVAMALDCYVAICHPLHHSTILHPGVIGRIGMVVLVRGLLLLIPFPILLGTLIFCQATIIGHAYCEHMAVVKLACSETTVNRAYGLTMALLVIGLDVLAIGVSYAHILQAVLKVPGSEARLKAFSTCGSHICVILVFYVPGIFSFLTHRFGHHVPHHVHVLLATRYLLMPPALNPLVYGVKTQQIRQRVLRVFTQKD
Description: as §1, with “independently. For screening experiments, stock solutions of odorant molecules were diluted in EMEM disposed in 96-well plates. Plates containing the tested molecules (1 molecule/well) at a concentration of 2 mM, at a concentration of 632 μM and at a concentration of 200 μM were prepared. For concentration-response analysis, serial dilutions of the tested molecules were prepared from stock solutions in EMEM plated into 96-well plates. […]” for “independently.”

OR52A5 = target: T7, OR52A5 (Homo sapiens, UniProt Q9H2C5); experiment: CRE-luciferase reporter assay, OR52A5 in HEK293T-RTP1A1/RTP2 cells
T7 construct: expressed in transfected cells; host or cells: HEK293T-RTP1A1/RTP2
T7 sequence (Q9H2C5 1-314 limits assumed): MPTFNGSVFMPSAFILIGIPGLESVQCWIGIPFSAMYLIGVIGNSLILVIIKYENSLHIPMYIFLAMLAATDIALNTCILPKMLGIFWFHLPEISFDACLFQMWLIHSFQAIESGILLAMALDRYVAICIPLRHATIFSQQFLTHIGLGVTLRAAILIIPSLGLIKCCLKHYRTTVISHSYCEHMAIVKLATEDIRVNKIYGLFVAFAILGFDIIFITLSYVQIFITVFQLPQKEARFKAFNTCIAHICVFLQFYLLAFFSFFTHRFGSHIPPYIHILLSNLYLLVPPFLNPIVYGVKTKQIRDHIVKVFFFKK
Description: as §1, with “After 5 days of culture, the presence and number of cell colonies per well was checked under a phase contrast microscopic. After 5 additional days of culture, wells containing a single colony were harvested and each collected population was amplified independently.” left out
as §4, with “Briefly, cells were platted on poly-D-lysine-coated 96-well plates (BD Bioscience, Erembodegem-Dorp, Belgium) and transfected with a plasmid containing the CRE-luciferase and a plasmid containing the olfactory receptor.” left out, “Forskolin. […]” for “Forskolin.”

T5 sequence (Q6IFG1 with tags, fused parts or gaps): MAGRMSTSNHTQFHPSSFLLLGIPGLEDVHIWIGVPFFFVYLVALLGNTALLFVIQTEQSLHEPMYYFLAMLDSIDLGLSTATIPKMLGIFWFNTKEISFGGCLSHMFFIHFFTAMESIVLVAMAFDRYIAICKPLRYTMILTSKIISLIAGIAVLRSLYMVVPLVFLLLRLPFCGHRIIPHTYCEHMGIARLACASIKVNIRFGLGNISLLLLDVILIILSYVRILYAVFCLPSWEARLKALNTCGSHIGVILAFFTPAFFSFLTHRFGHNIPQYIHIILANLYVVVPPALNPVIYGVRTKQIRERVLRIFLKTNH
T4 sequence (Q8NGJ3 whole entry F254L/Y278C): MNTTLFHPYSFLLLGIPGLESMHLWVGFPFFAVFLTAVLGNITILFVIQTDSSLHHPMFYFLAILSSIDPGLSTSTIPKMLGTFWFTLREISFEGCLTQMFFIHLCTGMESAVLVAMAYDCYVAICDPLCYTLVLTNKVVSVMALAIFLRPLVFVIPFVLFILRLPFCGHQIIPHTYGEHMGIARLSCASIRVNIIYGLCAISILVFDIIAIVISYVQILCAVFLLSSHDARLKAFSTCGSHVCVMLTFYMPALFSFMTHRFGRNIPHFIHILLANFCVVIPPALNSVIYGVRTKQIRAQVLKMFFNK

SMILES | activation of OR51I2 (hit in luciferase assay) (OR51I2) | activation of OR52B2 (hit in luciferase assay) (OR52B2) | activation of OR56A5 (hit in luciferase assay) (OR56A5) | other results
O=C(O)c1ccccc1 [benzoic acid] | activation |  |  | 
CCCCCCCCCC(=O)O [decanoic acid] |  | activation | activation | 
CCCC(=O)O [butanoic acid] | activation |  |  | activation of OR52E1 (hit in luciferase assay) (OR52E1): activation
CCCCCC(C)C(=O)O (stereo not shown) [2-methylheptanoic acid] |  |  | activation | 
CCCCC(C)C(=O)O (stereo not shown) [2-methylhexanoic acid] | activation |  |  | 
CCCC(C)(O)CC(=O)O (stereo not shown) [3-hydroxy-3-methylhexanoic acid] |  |  |  | activation of OR52E8 (hit in luciferase assay) (OR52E8): activation
CCCC(C)CC(=O)O (stereo not shown) [3-methylhexanoic acid] | activation |  |  | 
CCCCCCCCC(=O)O [nonanoic acid] |  | activation | activation | 
CCCCCCCCCCC(=O)O [undecanoic acid] |  | activation | activation | 
CCCCC(=O)O [pentanoic acid] | activation |  |  | activation of OR52L1 (hit in luciferase assay) (OR52L1): activation
CCCCCC(=O)O [hexanoic acid] | activation | activation | activation | 
CCC/C(C)=C/C(=O)O [(E)-3-methyl-2-hexanoic acid] | activation |  |  | 
CCCCCCCC(=O)O [octanoic acid] |  | activation | activation | 
CCCCC(CC)CCC(=O)O (stereo not shown) [4-ethyloctanoic acid] |  |  |  | activation of OR52A5 (hit in luciferase assay) (OR52A5): activation
CCCCCCC(=O)O [heptanoic acid] |  | activation | activation | 
CC(C)CC(=O)O [isovaleric acid] | activation |  |  | 
